Reference: ChEMBL document CHEMBL1152099, “C5-piperazinyl-1,4-benzodiazepines, water-soluble, orally bioa vailable CCKB/gastrin receptor antagonists” (Bioorg Med Chem Lett, 1995)
Converted amounts (≈) assume the structure as drawn.

Assays:
[1] = molecular target: T1, Cholecystokinin receptor type A (Rattus norvegicus) (UniProt P30551); assay: Compound was tested for its binding affinity by measuring the displacement of [125I]-BH CCK-8S from CCKA receptor in rat pancreas at a concentration of 3000 nM
T1 sequence (whole entry): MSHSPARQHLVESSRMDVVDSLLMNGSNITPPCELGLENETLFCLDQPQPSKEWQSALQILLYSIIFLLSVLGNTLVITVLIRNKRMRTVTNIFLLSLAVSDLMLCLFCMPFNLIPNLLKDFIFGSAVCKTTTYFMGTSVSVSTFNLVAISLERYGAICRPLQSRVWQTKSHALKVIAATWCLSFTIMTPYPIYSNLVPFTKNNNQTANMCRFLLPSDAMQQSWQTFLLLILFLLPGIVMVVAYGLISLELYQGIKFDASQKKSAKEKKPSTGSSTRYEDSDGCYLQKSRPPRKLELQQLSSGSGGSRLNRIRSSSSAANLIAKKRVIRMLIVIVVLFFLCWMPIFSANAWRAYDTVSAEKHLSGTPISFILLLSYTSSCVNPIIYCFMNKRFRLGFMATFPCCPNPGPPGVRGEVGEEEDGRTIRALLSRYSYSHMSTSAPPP

[2] = molecular target: T2, Cholecystokinin receptor type A (Rattus norvegicus, UniProt P30551); assay: Displacement of [125I]-BH CCK-8S from Cholecystokinin type A receptor in rat pancreas
T2 sequence (P30551 whole entry): T1 sequence (whole entry)

[3] = Maximum plasma drug concentration was determined; assay type: ADME, organism-based; conditions: rat
[4] = Bioavailability; assay type: ADME, organism-based; conditions: rat, in vivo
[5] = Tmax was determined; assay type: ADME, organism-based; conditions: rat, in vivo
Rattus norvegicus = species on record: Rattus norvegicus; assay: Compound was tested for its ability to block pentagastrin-induced single cell firing rate of rat ventromedial hyphalamic (VMH) neurons; assay type: functional
[6] = Compound was tested for solubility in water; assay type: ADME; conditions: read-out: S
[7] = Plasma half-life was determined; assay type: ADME, organism-based; conditions: rat

Structure (SMILES) | inhibition [1] [%] | IC50 [2] [µM] | also measured
CCCN1C(=O)[C@@H](NC(=O)Nc2cccc(C)c2)N=C(N2CCN(C)CC2)c2ccccc21 |  | 1.9 | 
Cc1cccc(NC(=O)NC2N=C(N3CCN(C)CC3)c3ccccc3N(C)C2=O)c1 (configuration not stated) |  | 4.26 | 
CCCN1C(=O)[C@H](NC(=O)Nc2cccc(C)c2)N=C(N2CCN(C)CC2)c2ccccc21 | 11 | > 3 | Cmax [3]: 469 ng/mL; bioavailability [4]: 51%; Tmax [5]: 5 min; Kb (Rattus norvegicus): 0.0018 µM; solubility [6]: 600 µg/mL (≈ 1340 µM); half-life [7]: 55 min
Cc1cccc(NC(=O)N[C@@H]2N=C(c3ccccc3)c3ccccc3N3C[C@H](C)N=C23)c1 |  | 1.56 | 
CCCN1C(=O)C(NC(=O)Nc2cccc(C(F)(F)F)c2)N=C(N2CCN(C)CC2)c2ccccc21 (configuration not stated) |  | 3.8 | 
CCCN1C(=O)C(NC(=O)Nc2cccc(C)c2)N=C(N2CCN(C)CC2)c2ccccc21 (configuration not stated) |  | 3.2 | 
Cc1cccc(NC(=O)NC2N=C(N3CCNCC3)c3ccccc3N(C)C2=O)c1 (configuration not stated) | 3 | > 3 | 

More lines, main results first:

inhibition [1] [%] | IC50 [2] [µM] | Structure (SMILES) | also measured
15 | > 3 | CCCN1C(=O)C(NC(=O)Nc2cccc(OC)c2)N=C(N2CCN(C)CC2)c2ccccc21 (configuration not stated) | 
46 | > 3 | CCCN1C(=O)C(NC(=O)Nc2cccc(CC)c2)N=C(N2CCN(C)CC2)c2ccccc21 (configuration not stated) | 
 | 5.31 | CCCc1cccc(NC(=O)NC2N=C(N3CCN(C)CC3)c3ccccc3N(CCC)C2=O)c1 (configuration not stated) | 
0 | > 3 | Cc1cccc(NC(=O)NC2N=C(N3CCN(C(=O)OC(C)(C)C)CC3)c3ccccc3N(C)C2=O)c1 (configuration not stated) | 
